Here are results for 18 compounds from patent US20230141603A1, “BENZODIAZEPINE DERIVATIVES AS GABA A GAMMA1 PAM” (Hoffmann-La Roche Inc., priority 2021, published 2023).

pKi: −log10 of the molar value.

The target in one experiment is T1, h-GABAA α1β2γ1 (Homo sapiens, UniProt P14867+Q8N1C3).
T1 construct: expressed in transfected cells; host or cells: HEK293F cells (ThermoFisher R79007), membranes
T1 sequence (P14867 28-456): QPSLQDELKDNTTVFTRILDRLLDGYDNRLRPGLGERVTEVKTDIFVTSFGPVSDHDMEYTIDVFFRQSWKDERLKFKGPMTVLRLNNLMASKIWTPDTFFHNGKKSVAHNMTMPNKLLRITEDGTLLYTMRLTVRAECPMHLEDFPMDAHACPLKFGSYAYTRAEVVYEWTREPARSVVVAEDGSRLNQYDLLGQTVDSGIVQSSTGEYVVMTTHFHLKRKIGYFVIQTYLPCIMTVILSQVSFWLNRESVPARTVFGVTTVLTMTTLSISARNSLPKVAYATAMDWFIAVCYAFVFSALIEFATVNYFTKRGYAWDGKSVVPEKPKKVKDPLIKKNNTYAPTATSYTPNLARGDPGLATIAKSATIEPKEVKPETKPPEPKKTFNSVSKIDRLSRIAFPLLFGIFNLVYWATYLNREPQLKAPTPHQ
T1 sequence (P47870 25-512 partner limits assumed): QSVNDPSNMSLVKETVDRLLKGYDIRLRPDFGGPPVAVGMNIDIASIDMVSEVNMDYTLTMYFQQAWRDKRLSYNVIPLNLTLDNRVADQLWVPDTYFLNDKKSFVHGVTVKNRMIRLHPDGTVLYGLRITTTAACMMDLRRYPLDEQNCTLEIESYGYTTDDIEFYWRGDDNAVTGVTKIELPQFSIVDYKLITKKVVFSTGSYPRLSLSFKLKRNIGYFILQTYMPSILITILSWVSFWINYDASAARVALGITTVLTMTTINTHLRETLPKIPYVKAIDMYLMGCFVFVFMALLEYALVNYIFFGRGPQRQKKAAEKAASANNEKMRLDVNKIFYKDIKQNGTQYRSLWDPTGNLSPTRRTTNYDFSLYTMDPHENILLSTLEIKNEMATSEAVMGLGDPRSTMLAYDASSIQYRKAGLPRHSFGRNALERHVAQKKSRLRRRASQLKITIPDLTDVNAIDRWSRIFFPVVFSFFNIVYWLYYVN
T1 sequence (Q8N1C3 36-465): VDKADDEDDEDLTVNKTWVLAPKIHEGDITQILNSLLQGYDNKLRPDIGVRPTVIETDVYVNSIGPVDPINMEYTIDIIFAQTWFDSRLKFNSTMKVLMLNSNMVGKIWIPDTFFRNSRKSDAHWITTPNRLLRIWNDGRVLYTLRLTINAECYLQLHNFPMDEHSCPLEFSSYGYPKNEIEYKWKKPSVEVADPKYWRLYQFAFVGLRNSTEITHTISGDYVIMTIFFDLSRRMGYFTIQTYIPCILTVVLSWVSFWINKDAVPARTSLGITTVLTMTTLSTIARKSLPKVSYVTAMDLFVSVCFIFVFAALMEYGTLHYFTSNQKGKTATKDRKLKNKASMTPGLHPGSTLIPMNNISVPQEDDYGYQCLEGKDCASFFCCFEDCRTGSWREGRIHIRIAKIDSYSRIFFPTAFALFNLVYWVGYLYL
The experiment can be described thus: Radioligand binding assay, [3H]RO7239181 competition, HEK293F membranes.

A further experiment concerns the target T2, h-GABAA α1β3γ2 (Homo sapiens, UniProt P14867+P18507).
T2 construct: expressed in transfected cells; host or cells: HEK293F cells, membranes
The experiment can be described thus: Radioligand binding assay, [3H]Flumazenil competition, HEK293F membranes. As to conditions: for γ2/γ1 Selectivity Ratio: Ki α1β3γ2 (nM)/Ki α2β2γ1 (nM); for LogSel: Log[Ki α1β3γ2 (nM)/Ki α2β2γ1 (nM)]. A digest of the protocol:
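[3H]Flumazenil competition binding on membranes from HEK293F cells transiently expressing human α1β3γ2 receptors. Incubation to equilibrium for 1 h at 4 °C, then filtration and scintillation counting. Ki is the mean of two determinations.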

For the compound `Cn1cc(-c2nnc3n2-c2ccc(Cl)c(Cl)c2C(c2c(F)cccc2F)=NC3)cn1` [Example 28, 7,8-dichloro-6-(2,6-difluorophenyl)-1-(1-methylpyrazol-4-yl)-4H-[1,2,4]triazolo[4,3-a][1,4]benzodiazepine], the pKi on h-GABAA α1β2γ1 was 7.90. The pKi at h-GABAA α1β3γ2 is 6.53. For the same compound, at h-GABAA α1β3γ2 (Table 1), the “γ2/γ1 Selectivity Ratio” value was determined as 31.1 and the LogSel is on record as 1.49.
`Fc1cccc(F)c1C1=NCc2nnc(-c3cccnn3)n2-c2ccc(C(F)(F)F)c(Cl)c21` [Example 38, 7-chloro-6-(2,6-difluorophenyl)-1-pyridazin-3-yl-8-(trifluoromethyl)-4H-[1,2,4]triazolo[4,3-a][1,4]benzodiazepine]: the pKi on h-GABAA α1β2γ1 was 7.55; on h-GABAA α1β3γ2, 5.85. In addition, the “γ2/γ1 Selectivity Ratio” value on h-GABAA α1β3γ2 (Table 1) was 113.4. On h-GABAA α1β3γ2 (Table 1), this compound showed a LogSel of 2.05.
The matching figures for `Fc1cccnc1C1=NCc2nnc(-c3ccncn3)n2-c2ccc(C(F)(F)F)c(Cl)c21` [Example 69, 7-chloro-6-(3-fluoro-2-pyridyl)-1-pyrimidin-4-yl-8-(trifluoromethyl)-4H-[1,2,4]triazolo[4,3-a][1,4]benzodiazepine]: 6.86, 4.98, 166.3 and 2.22.
Take `Cc1nnc2n1-c1ccc(Cl)c(Cl)c1C(c1c(F)cccc1F)=NC2` [Example 5, 7,8-dichloro-6-(2,6-difluorophenyl)-1-methyl-4H-[1,2,4]triazolo[4,3-a][1,4]benzodiazepine]: the values for the pKi at h-GABAA α1β2γ1 and at h-GABAA α1β3γ2 were 8.09 and 6.86, respectively. At h-GABAA α1β3γ2 (Table 1), the “γ2/γ1 Selectivity Ratio” value is 20.8. This compound also had a LogSel on h-GABAA α1β3γ2 (Table 1) of 1.32.
On the same counts, the results for `Cc1ccc2c(c1Cl)C(c1c(F)cccc1F)=NCc1nnc(-c3cccnn3)n1-2` [Example 48, 7-chloro-6-(2,6-difluorophenyl)-8-methyl-1-pyridazin-3-yl-4H-[1,2,4]triazolo[4,3-a][1,4]benzodiazepine] are 7.68, 6.02, 114.1 and 2.06.
Take `Cc1ccc2c(c1Cl)C(c1c(F)cccc1F)=NCc1nncn1-2` [Example 17, 7-chloro-6-(2,6-difluorophenyl)-8-methyl-4H-[1,2,4]triazolo[4,3-a][1,4]benzodiazepine]: the pKi was 7.32 at h-GABAA α1β2γ1 and 6.31 at h-GABAA α1β3γ2. Also, at h-GABAA α1β3γ2 (Table 1), the “γ2/γ1 Selectivity Ratio” value is given as 24.9. For the same compound, on h-GABAA α1β3γ2 (Table 1), the LogSel was found to be 1.40.
As for `O=c1[nH]nc2n1-c1ccc(Br)c(Cl)c1C(c1c(F)cccc1F)=NC2` [Example 13, 8-bromo-7-chloro-6-(2,6-difluorophenyl)-2,4-dihydro-[1,2,4]triazolo[4,3-a][1,4]benzodiazepin-1-one], the figures for the pKi at h-GABAA α1β2γ1 and at h-GABAA α1β3γ2 were 8.21 and 6.48, respectively. For the same compound, the “γ2/γ1 Selectivity Ratio” value at h-GABAA α1β3γ2 (Table 1) stood at 53.5. The compound also came in with a LogSel at h-GABAA α1β3γ2 (Table 1) of 1.73.
Consider `O=c1[nH]nc2n1-c1ccc(Cl)c(Cl)c1C(c1ncccc1F)=NC2` [Example 59, 7,8-dichloro-6-(3-fluoro-2-pyridyl)-2,4-dihydro-[1,2,4]triazolo[4,3-a][1,4]benzodiazepin-1-one], for which the pKi at h-GABAA α1β2γ1 was 7.27. Also, at h-GABAA α1β3γ2, the pKi is 6.24. Besides, on h-GABAA α1β3γ2 (Table 1), the “γ2/γ1 Selectivity Ratio” value was 21.9 and the LogSel was determined as 1.34.
For the compound `Fc1cccc(F)c1C1=NCc2nnc(-c3cccnn3)n2-c2ccc(Cl)c(Cl)c21` [Example 14, 7,8-dichloro-6-(2,6-difluorophenyl)-1-pyridazin-3-yl-4H-[1,2,4]triazolo[4,3-a][1,4]benzodiazepine], the pKi is 8.28 on h-GABAA α1β2γ1 and 6.52 at h-GABAA α1β3γ2. For the same compound, the “γ2/γ1 Selectivity Ratio” value at h-GABAA α1β3γ2 (Table 1) and on h-GABAA α1β3γ2 (Table 3) was 86.6 in each case. Also, the figures for the LogSel on h-GABAA α1β3γ2 (Table 1) and on h-GABAA α1β3γ2 (Table 3) were 1.94 and 1.9, respectively.
In turn, `Fc1ccccc1C1=NCc2nnc(-c3cccnn3)n2-c2ccc(C(F)(F)F)c(Cl)c21` [Example 27, 7-chloro-6-(2-fluorophenyl)-1-pyridazin-3-yl-8-(trifluoromethyl)-4H-[1,2,4]triazolo[4,3-a][1,4]benzodiazepine] showed a pKi at h-GABAA α1β2γ1 of 6.54. The pKi on h-GABAA α1β3γ2 was 5.32. Moreover, at h-GABAA α1β3γ2 (Table 1), the “γ2/γ1 Selectivity Ratio” value came out at 56.7 and the LogSel was 1.75.
Take `Fc1cccnc1C1=NCc2nnc(C3CC3)n2-c2ccc(Cl)c(Cl)c21` [Example 65, 7,8-dichloro-1-cyclopropyl-6-(3-fluoro-2-pyridyl)-4H-[1,2,4]triazolo[4,3-a][1,4]benzodiazepine]: the pKi at h-GABAA α1β2γ1 is 6.96; on h-GABAA α1β3γ2 it was 5.81. For the same compound, at h-GABAA α1β3γ2 (Table 1), the “γ2/γ1 Selectivity Ratio” value was 24.0. The LogSel on h-GABAA α1β3γ2 (Table 1) worked out at 1.38.
In turn, `Cc1ccc2c(c1Cl)C(c1c(F)cccc1F)=NCc1nnc(-c3ccncn3)n1-2` [Example 49, 7-chloro-6-(2,6-difluorophenyl)-8-methyl-1-pyrimidin-4-yl-4H-[1,2,4]triazolo[4,3-a][1,4]benzodiazepine] showed a pKi on h-GABAA α1β2γ1 of 7.39. The pKi on h-GABAA α1β3γ2 was 5.83. At h-GABAA α1β3γ2 (Table 1), the “γ2/γ1 Selectivity Ratio” value was 104.3 and the LogSel was determined as 2.02.
`Fc1cccc(F)c1C1=NCc2nnc(C3CCOCC3)n2-c2ccc(Cl)c(Cl)c21` [Example 11, 7,8-dichloro-6-(2,6-difluorophenyl)-1-tetrahydropyran-4-yl-4H-[1,2,4]triazolo[4,3-a][1,4]benzodiazepine] showed a pKi on h-GABAA α1β2γ1 of 7.22. The pKi on h-GABAA α1β3γ2 was 6.16. For the same compound, at h-GABAA α1β3γ2 (Table 1), the “γ2/γ1 Selectivity Ratio” value is recorded as 14.1 and the LogSel is 1.15.
`Cc1nnc2n1-c1ccc(Cl)c(Cl)c1C(c1ncccc1F)=NC2` [Example 71, 7,8-dichloro-6-(3-fluoro-2-pyridyl)-1-methyl-4H-[1,2,4]triazolo[4,3-a][1,4]benzodiazepine] showed a pKi on h-GABAA α1β2γ1 of 6.75. This compound gave a pKi at h-GABAA α1β3γ2 of 5.97. Besides, at h-GABAA α1β3γ2 (Table 1), the “γ2/γ1 Selectivity Ratio” value came to 28.7 and the LogSel is reported as 1.46.
On the same counts, the results for `Fc1cccnc1C1=NCc2nnc(-c3cccnn3)n2-c2ccc(C(F)(F)F)c(Cl)c21` [Example 72, 7-chloro-6-(3-fluoro-2-pyridyl)-1-pyridazin-3-yl-8-(trifluoromethyl)-4H-[1,2,4]triazolo[4,3-a][1,4]benzodiazepine] are 6.56, 4.99, 342.1 and 2.53.
The matching figures for `Fc1cccc(F)c1C1=NCc2nncn2-c2ccc(Br)c(Cl)c21` [Example 7, 8-bromo-7-chloro-6-(2,6-difluorophenyl)-4H-[1,2,4]triazolo[4,3-a][1,4]benzodiazepine]: 8.04, 6.69, 24.2 and 1.38.
The matching figures for `Cc1ccc2c(c1Cl)C(c1c(F)cccc1F)=NCc1n[nH]c(=O)n1-2` [Example 16, 7-chloro-6-(2,6-difluorophenyl)-8-methyl-2,4-dihydro-[1,2,4]triazolo[4,3-a][1,4]benzodiazepin-1-one]: 7.64, 6.18, 25.1 and 1.40.
For the compound `COc1ccc2c(c1Cl)C(c1c(F)cccc1F)=NCc1nnc(-c3ccncn3)n1-2` [Example 61, 7-chloro-6-(2,6-difluorophenyl)-8-methoxy-1-pyrimidin-4-yl-4H-[1,2,4]triazolo[4,3-a][1,4]benzodiazepine], the pKi on h-GABAA α1β2γ1 is 6.92. On h-GABAA α1β3γ2, this compound showed a negative-log Ki (pKi) of 5.67. For the same compound, at h-GABAA α1β3γ2 (Table 1), the “γ2/γ1 Selectivity Ratio” value turned out to be 27.6 and the LogSel worked out at 1.44.
